Data set [1] concerns NCI-H460 non-small-lung cancer cell line. As to the kind of experiment: NCI In Vitro Cell Line Screening, NSC H460 cell line. In kind it is cell-based. To be noted: for GI50 / CC50: Homo sapiens; for Log TGI NSC H460: concentration for total growth inhibition. An excerpt: Cytotoxic and Cytostatic Screening of Series 1-9.
Data set [2] concerns 600 bp calf thymus DNA. Put plainly: DNA reductive alkylation by catalytically reduced aziridinyl quinones. The format is biochemical. To be noted: for DNA alkylation percentage: catalytic reduction, anaerobic, pH 7.4 tris buffer, 30° C., 24 h, absorbance at 550 nm. The protocol: DNA Alkylation Screening of Series 1-9. The extent of DNA reductive alkylation was determined by catalytic reduction of the aziridinyl quinones in the presence of 600 bp calf thymus DNA. Oxidative workup afforded DNA colored blue as a result of the aminoquinone chromophore. […] The anaerobic conditions employed for DNA reductive alkylation assays is not meant to mimic the environment of tumor cells. These conditions do permit an accurate assessment of the structural requirements for DNA alkylation by the hydroquinone species. To be sure, agents incapable of akylating DNA under these ideal conditions will not do so in the typical cellular environment.
Alkylation of DNA by Reduced Indoloquinones. To a mixture of 1-2 mg of sonicated (600 bp) calf thymus DNA in 2.0 mL of 0.05 M of pH 7.4 tris buffer and 2 mg of Pd on carbon was added a five-to-one base pair equivalent amount of the indoloquinone dissolved in 0.5 mL of dimethylsulfoxide. The resulting solution was degassed under argon for 30 min., after which the mixture was purged with H2 for 10 min. The solution was then purged with argon for 10 min. and placed in a 30° C. bath for 24 h. The reaction was opened to the air and the catalyst was removed with a Millex-PF […] syringe filter. The filtrate was adjusted to 0.3 M acetate with a 3 M stock solution of pH 5.1 acetate and then diluted with two volumes of ethanol. The mixture was chilled at −20° C. for 12 h and the DNA pellet collected by centrifuging at 12,000 g for 20 min. The pellet was redissolved in water and then precipitated and centrifuged again. The resulting blue or red pellet was suspended in ethanol, centrifuged, and dried. The dried pellet was weighed and dissolved in 1 mL of double distilled water resulting in a clear colored solution with […]max˜550 nm, □˜750 M^−1 cm^−1. This is the chromophore of the aminoquinone resulting from nucleophile-mediated opening of the aziridine ring. Model 2′-chloroethyl aminoquinones for extinction coefficient determination were prepared by treatment of the indoloquinone with HCl. {Skibo, E. B. and Xing, C., Chemistry and DNA Alkylation Reactions of Aziridinyl Quinones: Development of an Efficient Alkylating Agent of the Phosphate Backbone, Biochemistry, 1998, 37, 15199-15213}.

For data set [3], the system named is B16 melanoma. Put plainly: animal or person. In kind it is in vivo. To be noted: for in vivo toxicity (in words) / in vivo antitumor activity (in words): 2, 3 or 5 mg/kg/day; for response vs control in vivo at 2 mg/kg / response vs control in vivo at 3 mg/kg / response vs control in vivo at 5 mg/kg: Mus musculus, B16, 600 h, read-out: In vivo T/C (Treated/Control). An excerpt:
Shown in Tables 6 and 7 are B16 melanoma syngraft assays {Griswold, D. P., Consideration of the Subcutaneously Implanted B16 Melanoma as a Screening Model for Potential Anticancer Agents, Cancer Chemother Reports, 1972, 3, 315-324} of some members of Series 1-9, as well as related compounds previously reported from this laboratory. {Xing, C. G., Wu, P., Skibo, E. B., and Dorr, R. T., Design of cancer-specific antitumor agents based on aziridlinylcyclopent[b]indoloquinones, J. Med. Chem., 2000, 43, 457-466}. Each agent was evaluated at three doses in C57/bl mice: 2, 3 or 5 mg/kg/day, on days 1, 5, and 9 after subcutaneous tumor implantation of 10^5 cells in the front flank on day 0. “Toxic” means that there was early lethality, or ≧50% lethality prior to any deaths in the control group. The treated over control values (T/C) were measured at day 25 of the study. A T/C value <40% is considered active.
In vivo Evaluation. The B-16 melanoma in C57/bl mice syngraft model was employed to determine in vivo activity. {Griswold, D. P., Consideration of the Subcutaneously Implanted B16 Melanoma as a Screening Model for Potential Anticancer Agents, Cancer Chemother Reports, 1972, 3, 315-324}. Each agent was evaluated at three doses: 2, 3 or 5 mg/kg/day, on days 1, 5, and 9 after subcutaneous tumor implantation of 10^5 cells in the front flank on day 0. “Toxic” means that there was early lethality, or ≧50% lethality prior to any deaths in the control group. The treated over control values (T/C) were measured at day 25 of the study. A T/C value<40% is considered active. […] The control was obtained with drug-free animals.

The subject of data set [4] is National Cancer Institute 60-cell line. Put plainly: NCI 60-cell line in vitro screen (average cytotoxicity and cancer specificity). The following applies: mean over 60 cell lines; ± value measures cancer specificity. The procedure: Cytotoxic and Cytostatic Screening of Series 1-9. […] The cytostatic parameters include GI50 and TGI, which are the concentrations of drug required for 50% growth inhibition and total growth inhibition, respectively. The cytotoxic parameter is the LC50, which is the concentration required for 50% cell kill.
4. […] Cancer specificity is measured from the ± value under the “Average Log LC50 60-Cell Line” heading of Table 5. A ± value greater than 2 indicates a greater than 100-fold higher/lower cytotoxicity in some histological cancer types compared to the mean cytotoxicity.
The DT-diaphorase levels in the National Cancer Institute 60-cell line in vitro screen have been determined and correlated with the cytotoxicity of antitumor agents activated by 2-electron reduction. {Fitzsimmons, S. A., Workman, P., Grever, M., Paull, K., Camalier, R., and Lewis, A. D., Reductase Enzyme Expression Across the National Cancer Institute Tumor Cell Line Panel: Correlation with Sensitivity To Mitomycin C and EO9, J. Natl. Cancer Inst., 1996, 88, 259-69}. Sensitive cancers usually include NSC lung and colon cancers (and to a lesser extent CNS, melanoma, and renal cancers) by virtue of their elevated DT-diaphorase levels.

Setting [5] is: NCI-H460, concentration for 50% growth inhibition, read-out: Log GI50 NSC H460 (converted).
[6] abbreviates: 5 mg/Kg/Day on days 1, 5, 9, T/C at day 25, <40% active.
Setting [7] is: NCI-H460, read-out: Log LC50 NSC H460, concentration for 50% cell kill (converted).
[8] abbreviates: 2 mg/Kg/Day on days 1, 5, 9, T/C at day 25, <40% active.
Setting [9] is: 3 mg/Kg/Day on days 1, 5, 9, T/C at day 25, <40% active.
Where [10] appears, read: NCI-H460, read-out: Log GI50 NSC H460 (converted).

Structures are written as SMILES. “And” between values parts separate entries of the source, which are not always exact repeats. Equal entries are not always repeated. Where two headings read alike, the source gives them in different places. A value given as a limit tells only on which side of the number the result lay.

As usually defined, the GI50 is the concentration giving 50% growth inhibition. As to `CC1=C(N2CC2)C(=O)c2c([nH]c3c2CCC3O)C1=O` (stereo not shown) [Compound 2a, 7-Aziridinyl-3-hydroxy-6-methyl-1,2,3,4-tetrahydrocyclopent[b]indole-5,8-dione], the GI50 in data set [1] (setting [5]) is 0.01 µM. Besides, in data set [2], the DNA alkylation percentage came to 11.2%.
Compound `CC(=O)OC1CCc2c1[nH]c1c2C(=O)C=C(N2CC2)C1=O` (stereo not shown) [Compound 3b, 3-Acetoxy-6-aziridinyl-1,2,3,4-tetrahydrocyclopent[b]indole-5,8-dione] yielded a DNA alkylation percentage in data set [2] of 29%. For the same compound, in data set [3] (setting [6]), the “In vivo T/C (Treated/Control)” value is on record as “Toxic (“Toxic” means ≧ 50% lethality before any control growth deaths)”.
Take `CC(=O)OC1CCc2c3c(n(C(C)=O)c21)C(=O)C(N1CC1)=CC3=O` (stereo not shown) [Compound 3c, 6-Aziridinyl-3-acetoxy-4-acetyl-1,2,3,4-tetrahydrocyclopent[b]indole-5,8-dione]: in data set [3], the “in vivo toxicity (in words)” value is on record as “toxic”, the response vs control in vivo at 2 mg/kg was greater than 50%, the response vs control in vivo at 3 mg/kg is greater than 50% and the response vs control in vivo at 5 mg/kg is greater than 50%.
For `CC1=C(N2CC2)C(=O)c2[nH]c3c(c2C1=O)CCC3O` (stereo not shown) [Compound 4a], the GI50 in data set [1] (setting [5]) was 0.01 µM. The CC50 in data set [1] (setting [7]) was 100 µM. Moreover, the “Log TGI NSC H460” value in data set [1] is given as −6.97. Besides, the DNA alkylation percentage in data set [2] was 10%. In addition, the “in vivo toxicity (in words)” value in data set [3] is “without any toxicity”. The response vs control in vivo at 2 mg/kg in data set [3] (setting [8]) is 75%. The response vs control in vivo at 3 mg/kg in data set [3] (setting [9]) amounted to 45%.
In data set [2], `O=C1C=C(N2CC2)C(=O)c2c1[nH]c(CO)c2CO` [Compound 6a, 5-Aziridinyl-2,3-di(hydroxymethyl)indole-4,7-dione] came in with a DNA alkylation percentage of 16.7%. Moreover, the “In vivo T/C (Treated/Control)” value in data set [3] (setting [8]), in data set [3] (setting [9]) and in data set [3] (setting [6]) was “Toxic (“Toxic” means ≧ 50% lethality before any control growth deaths)” each time.
As for `CCOC(=O)c1[nH]c2c(c1CO)C(=O)C(N1CC1)=CC2=O` [Compound 6c, 5-Aziridinyl-2-ethylcarboxyl-3-(hydroxymethyl)indole-4,7-dione], the GI50 in data set [1] (setting [10]) is 0.01 µM. The CC50 in data set [1] (setting [7]) was 0.631 µM; in data set [1] (NCI-H460, read-out: −log LC50 value, H460 cell line (converted)), 0.631 µM. Further, the “Log TGI NSC H460” value in data set [1] was −7 and −6.95. Besides, the “Average Log LC50 60-Cell Line” value in data set [4] was −5.79 ± 1.98.
As to `CC(=O)OCc1[nH]c2c(c1COC(C)=O)C(=O)C(N1CC1)=CC2=O` [Compound 6e, 5-Aziridinyl-2,3-di(acetoxymethyl)indole-4,7-dione], in data set [2], the “DNA alkylation (in words)” value is reported as “high DNA alkylation percentages” and the DNA alkylation percentage is recorded as 43%.
Turning to `CCOC(=O)c1[nH]c2c(c1CO)C(=O)C(N1CC1)=C(C)C2=O` [Compound 7b, 5-Aziridinyl-2-ethylcarboxyl-3-hydroxymethyl-6-methylindole-4,7-dione], in data set [1] (setting [10]), the GI50 is 0.01 µM. Besides, the “Log TGI NSC H460” value in data set [1] is −7.99 and −7.96. The “Average Log LC50 60-Cell Line” value in data set [4] is −5.69 ± 2.31 and −5.75 ± 2.25.
In data set [2], `CC1=C(N2CC2)C(=O)c2[nH]c(CO)c(CO)c2C1=O` [Compound 8a, 6-Aziridinyl-2,3-di(hydroxymethyl)-5-methylindole-4,7-dione] displayed a DNA alkylation percentage of 4%. In addition, the “In vivo T/C (Treated/Control)” value in data set [3] (setting [9]) and in data set [3] (setting [6]) was “Toxic (“Toxic” means ≧ 50% lethality before any control growth deaths)” in each case. Besides, the response vs control in vivo at 2 mg/kg in data set [3] (setting [8]) stood at 54%.
Turning to `COC1CCc2c1[nH]c1c2C(=O)C(C)=C(N2CC2)C1=O` (stereo not shown) [reference compound], in data set [3], the “in vivo toxicity (in words)” value was “toxicity only seen at the highest dose”.
Consider `CC1=C(N2CC2)C(=O)c2[nH]c(C)c(C)c2C1=O` [reference compound], for which, in data set [3], the response vs control in vivo at 2 mg/kg came out at 22%, the response vs control in vivo at 3 mg/kg is greater than 50% and the response vs control in vivo at 5 mg/kg is greater than 50%.
For the compound `CC1=C(N2CC2)C(=O)c2c([nH]c(C)c2C)C1=O` [reference compound], the “In vivo T/C (Treated/Control)” value in data set [3] (setting [6]) is “Toxic (“Toxic” means ≧ 50% lethality before any control growth deaths)”. Moreover, in data set [3] (setting [8]), the response vs control in vivo at 2 mg/kg amounted to 10%. For the same compound, in data set [3] (setting [9]), the response vs control in vivo at 3 mg/kg turned out to be 60%.
For the compound `CC1=C(N2CC2)C(=O)c2[nH]c(CO)c(C)c2C1=O` [reference compound], in data set [3], the “in vivo antitumor activity (in words)” value is “antitumor activity is retained” and the “in vivo toxicity (in words)” value is “without much toxicity”. Also, the response vs control in vivo at 2 mg/kg in data set [3] (setting [8]) is 61%. In addition, the response vs control in vivo at 3 mg/kg in data set [3] (setting [9]) is 37%. Besides, the response vs control in vivo at 5 mg/kg in data set [3] (setting [6]) is 34%.
Turning to `CC(=O)OCc1[nH]c2c(c1C)C(=O)C(C)=C(N1CC1)C2=O` [reference compound], in data set [3], the “in vivo antitumor activity (in words)” value was “inactive at all doses”.
Consider `CC(=O)OCc1[nH]c2c(c1C)C(=O)C(N1CC1)=C(C)C2=O` [reference compound], for which the “In vivo T/C (Treated/Control)” value in data set [3] (setting [9]) and in data set [3] (setting [6]) was “Toxic (“Toxic” means ≧ 50% lethality before any control growth deaths)” each time. Also, in data set [3] (setting [8]), the response vs control in vivo at 2 mg/kg worked out at 47%.
